Results reported in US9861103B2, “Combination of pethoxamid and picloram” (CHEMINOVA A/S, priority 2013, dated 2018).

System: Galium aparine
Assay: Field trials in winter oilseed rape: visually estimated weed control of Galium aparine, synergy by the Colby method
Format: in vivo
Conditions: pethoxamid 1200 g a.i/ha, picloram 23 g a.i/ha, A + B 1200 + 23 g/ha
Excerpt: Two field trials are established in commercial fields of winter oilseed rape Brassica napus, at sites known to contain natural populations of broad-leaved weeds, including Galium aparine. Plots, with a minimum size of 18 m^2, are arranged with three replicates per treatment.
At each trial, each treatment is applied using a small plot sprayer fitted with flatfan nozzles in a spray volume of 200 l/ha at one of three treatment timings: Timing A—early post-emergence of the oilseed rape, when the crop is at cotyledon to one true leaf stage (BBCH10/11) and pre-emergence of G. aparine; Timing B—when the crop has two true leaves (BBCH 12) of the crop and at emergence of G. aparine (BBCH09-10). Full application details are recorded, including weather and soil conditions, as well as growth stages and populations of crop and weed species.
Weed control is then assessed by visually estimating the control, as a percentage, relative to the ground cover and vigour of each weed species in the untreated plots. The weed control evaluation is made at 24-27 days, 40-46 days, 54-60 days and 75-81 days after treatment Timing A.
The data is then analysed using the Colby method to determine synergy.

[1] = Timing A (crop BBCH10/11, pre-emergence of G. aparine), 24-27 days after Timing A
[2] = Timing A (crop BBCH10/11, pre-emergence of G. aparine), 40-46 days after Timing A
[3] = Timing A (crop BBCH10/11, pre-emergence of G. aparine), 54-60 days after Timing A
[4] = Timing A (crop BBCH10/11, pre-emergence of G. aparine), 75-81 days after Timing A
[5] = Timing B (crop BBCH 12, at emergence of G. aparine BBCH09-10), 24-27 days
[6] = Timing B (crop BBCH 12, at emergence of G. aparine BBCH09-10), 40-46 days
[7] = Timing B (crop BBCH 12, at emergence of G. aparine BBCH09-10), 75-81 days

In the case of `CCOCCN(C(=O)CCl)C(=C(C)C)c1ccccc1` [pethoxamid], the “Weed control (visual estimate relative to untreated plots)” value [1] is reported as 56.67%, the “Weed control (visual estimate relative to untreated plots)” value [2] is reported as 20% and the “Weed control (visual estimate relative to untreated plots)” value [3] is reported as 43.33%. For the same compound, the “Weed control (visual estimate relative to untreated plots)” value [4] was 23.33%, the “Weed control (visual estimate relative to untreated plots)” value [5] was 20% and the “Weed control (visual estimate relative to untreated plots)” value [6] was 6.67%. The “Weed control (visual estimate relative to untreated plots)” value [7] was 50%.
For `Nc1c(Cl)c(Cl)nc(C(=O)O)c1Cl` [picloram], the “Weed control (visual estimate relative to untreated plots)” value [1] was 0%, the “Weed control (visual estimate relative to untreated plots)” value [2] was 0% and the “Weed control (visual estimate relative to untreated plots)” value [3] was 30%. The “Weed control (visual estimate relative to untreated plots)” value [4] was 30%, the “Weed control (visual estimate relative to untreated plots)” value [5] was 10% and the “Weed control (visual estimate relative to untreated plots)” value [6] was 6.67%. The “Weed control (visual estimate relative to untreated plots)” value [7] was 43.33%.
